Test results reported in DBAASP.
Values after ≈ are worked out from the molar mass of the structure shown.

Assays:
Test in all cases: ≥ marks a high value that may be exact or a test limit, other limits are often not marked, values filed in µg/mL are converted to µM
[1] = test system: Micrococcus luteus
[2] = test system: Staphylococcus aureus
[3] = test system: Salmonella typhimurium
[4] = test system: Shigella dysenteriae
[5] = test system: Klebsiella pneumoniae
[6] = test system: Pseudomonas aeruginosa
[7] = test system: Bacillus subtilis
[8] = test system: Escherichia coli
[9] = test system: Proteus mirabilis
[10] = test system: Staphylococcus epidermidis
[11] = test system: Escherichia coli ATCC 25922
[12] = test system: Klebsiella pneumoniae ATCC 700603
[13] = test system: Pseudomonas aeruginosa ATCC 9027
[14] = test system: Acinetobacter baumannii
[15] = test system: Staphylococcus aureus ATCC 25923
[16] = test system: Bacillus subtilis ATCC 23857
[17] = test system: Enterococcus faecalis ATCC 29212
[18] = test system: Acinetobacter baumannii ATCC 19606
[19] = test system: Staphylococcus epidermidis ATCC 12228
[20] = test system: Pseudomonas aeruginosa ATCC 27853
[21] = test system: Klebsiella pneumoniae ATCC 13883

With `CC(C)C[C@H](NC(=O)[C@@H](NC(=O)[C@H](CCCCN)NC(=O)[C@H](CO)NC(=O)[C@H](C)NC(=O)[C@@H](NC(=O)[C@H](CCCCN)NC(=O)[C@H](Cc1ccccc1)NC(=O)[C@H](CC(C)C)NC(=O)[C@H](C)NC(=O)CNC(=O)[C@H](CC(C)C)NC(=O)[C@H](C)N)C(C)C)C(C)C)C(=O)O` [ALGALFKVASKVL] the MIC [1] was ≥ 152 µM, the MIC [2] was 9.49 µM (≈ 12.5 µg/mL) and the MIC [3] was ≥ 152 µM. The MIC [4] was ≥ 152 µM, the MIC [5] was 76 µM (≈ 100 µg/mL) and the MIC [6] was 152 µM (≈ 200 µg/mL). The MIC [7] was 19 µM (≈ 25 µg/mL), the MIC [8] was 38 µM (≈ 50 µg/mL) and the MIC [9] was ≥ 152 µM. For the same molecule, the MIC [10] was ≥ 38 µM.
With `CC[C@H](C)[C@H](NC(=O)[C@H](CC(C)C)NC(=O)[C@H](CCC(N)=O)NC(=O)[C@@H](NC(=O)[C@H](CC(C)C)NC(=O)[C@H](CCCN=C(N)N)NC(=O)[C@H](CCCN=C(N)N)NC(=O)[C@@H](NC(=O)[C@H](C)NC(=O)[C@H](CCCCN)NC(=O)[C@H](CCCN=C(N)N)NC(=O)[C@H](CC(C)C)NC(=O)[C@@H](NC(=O)[C@H](C)NC(=O)[C@@H](NC(=O)[C@H](C)N)[C@@H](C)O)[C@@H](C)CC)[C@@H](C)O)C(C)C)C(=O)O` [ATAILRKATRRLVQLI] the MIC [11] was > 25 µM, the MIC [12] was > 25 µM and the MIC [13] was > 25 µM. The MIC [14] was 25 µM (≈ 45.6 µg/mL) and the MIC [15] was > 25 µM.
For `CC(C)C[C@H](NC(=O)[C@H](C)NC(=O)CNC(=O)[C@H](CC(C)C)NC(=O)[C@@H](N)Cc1ccccc1)C(=O)N[C@@H](Cc1ccccc1)C(=O)N[C@@H](Cc1c[nH]c2ccccc12)C(=O)N[C@H](C(=O)N[C@@H](C)C(=O)N[C@@H](CO)C(=O)N[C@@H](CCCCN)C(=O)O)C(C)C` [FLGALFWVASK], the MIC [1] was ≥ 161 µM, the MIC [2] was > 161 µM and the MIC [3] was ≥ 161 µM. For the same molecule, the MIC [4] was ≥ 161 µM, the MIC [5] was > 161 µM and the MIC [6] was > 161 µM. The MIC [7] was ≥ 161 µM, the MIC [8] was > 161 µM and the MIC [9] was ≥ 161 µM. The MIC [10] was ≥ 161 µM.
`CC(C)C[C@H](NC(=O)[C@@H](N)Cc1ccccc1)C(=O)NCC(=O)N[C@@H](C)C(=O)N[C@@H](Cc1c[nH]c2ccccc12)C(=O)N[C@@H](Cc1ccccc1)C(=O)N[C@@H](CCCCN)C(=O)N[C@H](C(=O)N[C@@H](C)C(=O)N[C@@H](CO)C(=O)N[C@@H](CCCCN)C(=O)O)C(C)C` [FLGAWFKVASK] was tested, and the MIC [1] was ≥ 160 µM, the MIC [2] was > 160 µM and the MIC [3] was ≥ 160 µM. For the same molecule, the MIC [4] was ≥ 160 µM, the MIC [5] was > 160 µM and the MIC [6] was > 160 µM. For the same molecule, the MIC [7] was ≥ 160 µM, the MIC [8] was > 160 µM and the MIC [9] was ≥ 160 µM. For the same molecule, the MIC [10] was ≥ 160 µM.
`CC(C)C[C@H](NC(=O)[C@H](C)NC(=O)CNC(=O)[C@H](Cc1c[nH]c2ccccc12)NC(=O)[C@@H](N)Cc1ccccc1)C(=O)N[C@@H](Cc1ccccc1)C(=O)N[C@@H](CCCCN)C(=O)N[C@H](C(=O)N[C@@H](C)C(=O)N[C@@H](CO)C(=O)N[C@@H](CCCCN)C(=O)O)C(C)C` [FWGALFKVASK] was tested, and the MIC [1] was ≥ 79.8 µM, the MIC [2] was 19.9 µM (≈ 25 µg/mL) and the MIC [3] was ≥ 160 µM. For the same molecule, the MIC [4] was ≥ 160 µM, the MIC [5] was 79.8 µM (≈ 100 µg/mL) and the MIC [6] was > 160 µM. For the same molecule, the MIC [7] was ≥ 39.9 µM, the MIC [8] was 79.8 µM (≈ 100 µg/mL) and the MIC [9] was ≥ 160 µM. For the same molecule, the MIC [10] was ≥ 79.8 µM.
`CC[C@H](C)[C@H](NC(=O)[C@H](CCCCN)NC(=O)[C@@H](NC(=O)[C@@H](NC(=O)[C@H](CCCCN)NC(=O)[C@@H](NC(=O)[C@@H](NC(=O)CNC(=O)[C@H](C)NC(=O)[C@@H](NC(=O)[C@@H](NC(=O)CN)[C@@H](C)CC)[C@@H](C)CC)[C@@H](C)CC)[C@@H](C)CC)[C@@H](C)CC)[C@@H](C)CC)C(N)=O` [GIIAGIIKIIKI] was tested, and the MIC [11] was > 128 µM and the MIC [16] was ≥ 128 µM.
In the case of `CC[C@H](C)[C@H](NC(=O)CNC(=O)[C@H](CCCN=C(N)N)NC(=O)[C@H](CCCCN)NC(=O)[C@@H](NC(=O)CNC(=O)[C@H](CCCN=C(N)N)NC(=O)[C@H](CCCCN)NC(=O)[C@@H](NC(=O)CN)[C@@H](C)CC)[C@@H](C)CC)C(=O)N[C@@H](CCCCN)C(=O)N[C@@H](CCCN=C(N)N)C(N)=O` [GIKRGIKRGIKR], the MIC [11] is reported as > 128 µM and the MIC [16] is reported as ≥ 128 µM.
With `CC[C@H](C)[C@H](NC(=O)CN)C(=O)N[C@@H](CCCN=C(N)N)C(=O)N[C@@H](CCCN=C(N)N)C(=O)NCC(=O)N[C@H](C(=O)N[C@H](C(=O)N[C@@H](CCCCN)C(=O)N[C@H](C(=O)N[C@H](C(=O)N[C@@H](CCCCN)C(=O)N[C@@H](CCCN=C(N)N)C(N)=O)[C@@H](C)CC)[C@@H](C)CC)[C@@H](C)CC)[C@@H](C)CC` [GIRRGIIKIIKR] the MIC [11] was 128 µM (≈ 182 µg/mL) and the MIC [16] was ≥ 32 µM.
`CC(C)C[C@H](NC(=O)CN)C(=O)N[C@@H](CC(C)C)C(=O)N[C@@H](CCCCN)C(=O)N[C@@H](CCCN=C(N)N)C(=O)N[C@@H](CC(C)C)C(=O)N[C@@H](CCCCN)C(=O)N[C@H](C(=O)N[C@@H](CC(C)C)C(=O)N[C@@H](C)C(N)=O)[C@@H](C)O` [GLLKRLKTLA] was tested, and the MIC [17] was > 512 µM, the MIC [11] was 256 µM (≈ 285 µg/mL) and the MIC [12] was 256 µM (≈ 285 µg/mL). The MIC [18] was > 512 µM, the MIC [16] was ≥ 32 µM and the MIC [19] was 64 µM (≈ 71.1 µg/mL). The MIC [20] was 64 µM (≈ 71.1 µg/mL) and the MIC [15] was 256 µM (≈ 285 µg/mL).
`CC(C)[C@H](NC(=O)CNC(=O)[C@H](CCCN=C(N)N)NC(=O)[C@@H](NC(=O)[C@H](Cc1c[nH]c2ccccc12)NC(=O)[C@@H](NC(=O)[C@H](CCCN=C(N)N)NC(=O)CNC(=O)[C@H](Cc1c[nH]c2ccccc12)NC(=O)[C@H](CCCN=C(N)N)NC(=O)[C@@H](NC(=O)[C@@H](NC(=O)[C@@H](NC(=O)CN)C(C)C)C(C)C)C(C)C)C(C)C)C(C)C)C(=O)N[C@@H](CCCN=C(N)N)C(=O)N[C@@H](CCCN=C(N)N)C(N)=O` [GVVVRWGRVWVRGVRR] was tested, and the MIC [2] was 4 µM (≈ 7.75 µg/mL), the MIC [3] was 2 µM (≈ 3.87 µg/mL) and the MIC [7] was 2 µM (≈ 3.87 µg/mL). For the same molecule, the MIC [8] was 4 µM (≈ 7.75 µg/mL).
`C[C@@H](O)[C@H](NC(=O)[C@H](CCCCN)NC(=O)[C@H](Cc1c[nH]c2ccccc12)NC(=O)[C@H](CCCN=C(N)N)NC(=O)[C@H](CCCCN)NC(=O)[C@H](Cc1c[nH]c2ccccc12)NC(=O)[C@H](Cc1c[nH]c2ccccc12)NC(=O)CN)C(=O)N[C@@H](Cc1c[nH]c2ccccc12)C(=O)N[C@@H](Cc1c[nH]c2ccccc12)C(N)=O` [GWWKRWKTWW] showed an MIC [17] of 16 µM (≈ 24.3 µg/mL), an MIC [11] of 16 µM (≈ 24.3 µg/mL) and an MIC [12] of 16 µM (≈ 24.3 µg/mL). For the same molecule, the MIC [18] was 16 µM (≈ 24.3 µg/mL), the MIC [16] was 4 µM (≈ 6.08 µg/mL) and the MIC [19] was 4 µM (≈ 6.08 µg/mL). For the same molecule, the MIC [20] was 8 µM (≈ 12.2 µg/mL) and the MIC [15] was 8 µM (≈ 12.2 µg/mL).
In the case of `CC[C@H](C)[C@H](N)C(=O)N[C@@H](CC(N)=O)C(=O)N[C@@H](CC(C)C)C(=O)N[C@@H](CCCCN)C(=O)N[C@H](C(=O)N[C@@H](CC(C)C)C(=O)N[C@@H](C)C(=O)N[C@@H](CCCN=C(N)N)C(=O)N[C@@H](CC(C)C)C(=O)N[C@@H](C)C(=O)N[C@@H](CCCCN)C(=O)N[C@@H](CCCCN)C(=O)N[C@H](C(=O)N[C@@H](CC(C)C)C(N)=O)[C@@H](C)CC)[C@@H](C)CC` [INLKILARLAKKIL], the MIC [2] is reported as 3 µM (≈ 4.82 µg/mL), the MIC [5] is reported as 3 µM (≈ 4.82 µg/mL) and the MIC [21] is reported as 3 µM (≈ 4.82 µg/mL). For the same molecule, the MIC [15] was 6.25 µM (≈ 10 µg/mL).
`CC[C@H](C)[C@H](NC(=O)[C@H](CCCCN)NC(=O)[C@H](CCCCN)NC(=O)[C@H](C)NC(=O)[C@@H](NC(=O)[C@H](C)NC(=O)[C@H](CC(C)C)NC(=O)[C@H](CC(C)C)NC(=O)[C@H](CCCCN)NC(=O)[C@H](CCCCN)NC(=O)[C@H](CC(C)C)NC(=O)[C@H](CC(N)=O)NC(=O)[C@@H](N)CC(C)C)C(C)C)C(N)=O` [LNLKKLLAVAKKI] gave an MIC [11] of 16 µM (≈ 23.2 µg/mL), an MIC [12] of 64 µM (≈ 92.9 µg/mL) and an MIC [13] of 16 µM (≈ 23.2 µg/mL). It also gave an MIC [16] of 8 µM (≈ 11.6 µg/mL) and an MIC [15] of 128 µM (≈ 186 µg/mL).
